This is an account of results in ChEMBL document CHEMBL1136646, “Biphenyls as potent vitronectin receptor antagonists. Part 2: biphenylalanine ureas” (Bioorg Med Chem Lett, 2003).

A value given as a limit tells only on which side of the number the result lay.

The target in this test is Integrin alpha-V/beta-3 (Homo sapiens, UniProt P05106+P06756). As to the kind of experiment: Binding affinity towards vitronectin receptor (alpha V-beta3) was determined. It counts as protein-complex assay.
Integrin alpha-V/beta-3, sequence (P05106 27-788 limits assumed): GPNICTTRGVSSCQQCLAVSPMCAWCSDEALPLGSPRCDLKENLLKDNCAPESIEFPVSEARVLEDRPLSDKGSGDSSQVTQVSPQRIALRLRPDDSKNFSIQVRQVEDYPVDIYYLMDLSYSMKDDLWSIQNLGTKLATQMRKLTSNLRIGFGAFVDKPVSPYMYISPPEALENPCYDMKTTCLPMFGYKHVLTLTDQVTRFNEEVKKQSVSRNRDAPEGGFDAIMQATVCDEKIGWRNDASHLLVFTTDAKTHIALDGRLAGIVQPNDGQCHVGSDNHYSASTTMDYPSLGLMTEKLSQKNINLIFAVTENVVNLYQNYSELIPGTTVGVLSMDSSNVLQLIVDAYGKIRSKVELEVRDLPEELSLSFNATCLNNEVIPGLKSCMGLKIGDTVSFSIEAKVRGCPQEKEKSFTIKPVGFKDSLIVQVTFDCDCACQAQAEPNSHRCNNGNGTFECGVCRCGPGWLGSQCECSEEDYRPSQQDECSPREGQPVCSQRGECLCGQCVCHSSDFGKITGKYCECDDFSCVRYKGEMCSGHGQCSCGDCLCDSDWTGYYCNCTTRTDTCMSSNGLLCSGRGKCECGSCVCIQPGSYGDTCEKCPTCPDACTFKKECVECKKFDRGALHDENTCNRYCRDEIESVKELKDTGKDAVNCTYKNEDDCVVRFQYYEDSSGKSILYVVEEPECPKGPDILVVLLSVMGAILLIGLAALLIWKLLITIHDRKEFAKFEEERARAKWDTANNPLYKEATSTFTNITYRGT
Integrin alpha-V/beta-3, sequence (P06756 31-889 limits assumed): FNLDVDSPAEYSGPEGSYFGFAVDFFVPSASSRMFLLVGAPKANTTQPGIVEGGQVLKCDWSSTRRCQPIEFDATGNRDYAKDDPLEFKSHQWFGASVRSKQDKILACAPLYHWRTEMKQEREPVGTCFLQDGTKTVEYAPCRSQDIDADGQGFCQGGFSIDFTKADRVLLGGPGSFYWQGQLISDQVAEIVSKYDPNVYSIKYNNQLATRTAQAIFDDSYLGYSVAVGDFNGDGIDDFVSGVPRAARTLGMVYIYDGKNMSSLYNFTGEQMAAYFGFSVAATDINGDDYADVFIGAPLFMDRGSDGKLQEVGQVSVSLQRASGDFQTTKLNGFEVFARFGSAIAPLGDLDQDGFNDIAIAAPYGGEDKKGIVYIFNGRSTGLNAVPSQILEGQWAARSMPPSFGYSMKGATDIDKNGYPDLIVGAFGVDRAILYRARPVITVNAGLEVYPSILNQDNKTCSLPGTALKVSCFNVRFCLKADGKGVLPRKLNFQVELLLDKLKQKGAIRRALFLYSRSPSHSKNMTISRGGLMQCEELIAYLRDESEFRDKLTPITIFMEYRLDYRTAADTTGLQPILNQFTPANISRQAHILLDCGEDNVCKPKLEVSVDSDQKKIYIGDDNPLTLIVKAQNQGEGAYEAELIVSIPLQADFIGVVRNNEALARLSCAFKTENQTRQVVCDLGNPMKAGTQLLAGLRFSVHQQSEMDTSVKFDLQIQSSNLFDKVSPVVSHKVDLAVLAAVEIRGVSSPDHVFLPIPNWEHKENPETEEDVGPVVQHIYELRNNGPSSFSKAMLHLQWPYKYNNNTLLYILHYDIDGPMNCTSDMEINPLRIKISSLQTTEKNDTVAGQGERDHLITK
Integrin alpha-V/beta-3, sequence (P06756 891-1048 limits assumed): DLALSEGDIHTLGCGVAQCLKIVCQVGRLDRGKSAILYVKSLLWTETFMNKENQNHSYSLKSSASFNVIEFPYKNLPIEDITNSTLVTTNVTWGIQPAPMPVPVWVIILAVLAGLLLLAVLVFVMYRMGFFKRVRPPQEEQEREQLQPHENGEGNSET
The molecule `CCCNC(=O)Nc1cccc(-c2ccc(C[C@H](NC(=O)OC3CCCC3)C(=O)O)cc2)c1` showed a Ki of 210 nM. This counts as sub-micromolar.

`CCC(C)NC(=O)Nc1cccc(-c2ccc(C[C@H](NS(=O)(=O)c3c(C)cc(C)cc3C)C(=O)O)cc2)c1` (stereo partly drawn) had an inhibitory constant (Ki) of 74 nM.

Turning to `CCCNC(=O)Nc1cccc(-c2ccc(C[C@H](NS(=O)(=O)Cc3ccccc3)C(=O)O)cc2)c1`, affinity was put at a Ki of 300 nM.

The molecule `CCCNC(=O)Nc1cccc(-c2ccc(C[C@H](NS(=O)(=O)c3cccc(Cl)c3Cl)C(=O)O)cc2)c1` showed a Ki of 170 nM.

Regarding `Cc1cc(C)c(S(=O)(=O)N[C@@H](Cc2ccc(-c3cccc(NC(=O)NCC(F)(F)C(F)(F)F)c3)cc2)C(=O)O)c(C)c1`, the inhibition constant Ki came out at 80 nM.

In the case of `CCCNC(=O)Nc1cccc(-c2ccc(C[C@H](NS(=O)(=O)C[C@]34CCC(CC3=O)C4(C)C)C(=O)O)cc2)c1`, the Ki turned out to be 1 nM. This Ki lies about 80-fold lower than the previous one.

On to `Cc1cc(C)c(S(=O)(=O)N[C@@H](Cc2ccc(-c3ccc(C)c(NC(=O)NC4CCCC4)c3)cc2)C(=O)O)c(C)c1`, for which the Ki turned out to be 100 nM.

In the case of `Cc1cc(C)c(S(=O)(=O)N[C@@H](Cc2ccc(-c3cccc(NC(=O)NCCSC(F)(F)F)c3)cc2)C(=O)O)c(C)c1`, the Ki was determined as 8 nM.

As to `CCCNC(=O)Nc1cccc(-c2ccc(C[C@H](NS(=O)(=O)c3ccc(Cl)cc3C(F)(F)F)C(=O)O)cc2)c1`, the inhibitory constant (Ki) is 100 nM.

`Cc1cc(C)c(S(=O)(=O)N[C@@H](Cc2ccc(-c3cccc(NC(=O)NC4CC4)c3)cc2)C(=O)O)c(C)c1` had an inhibition constant Ki of 2.5 nM. Compared with the last molecule, the Ki is about 40-fold lower.

`CCCNC(=O)Nc1cccc(-c2ccc(C[C@H](NC(=O)OCC(C)C)C(=O)O)cc2)c1` came in with a Ki of 900 nM.

Regarding `CCCNC(=O)Nc1cccc(-c2ccc(C[C@H](NS(C)(=O)=O)C(=O)O)cc2)c1`, the inhibition constant (Ki) is 75 nM.

Consider `Cc1cc(C)c(S(=O)(=O)N[C@@H](Cc2ccc(-c3cccc(NC(=N)N)c3)cc2)C(=O)O)c(C)c1`, for which the inhibition constant Ki was found to be 11 nM.

The molecule `CCCNC(=O)Nc1cccc(-c2ccc(C[C@H](NC(=O)NCc3ccccc3)C(=O)O)cc2)c1` registered an inhibition constant Ki of 850 nM. Against the preceding molecule, the Ki is about 77-fold higher.

For `CCCNC(=O)Nc1cccc(-c2ccc(C[C@H](NC(=O)OCC)C(=O)O)cc2)c1`, the affinity, expressed as Ki, was 120 nM.

The molecule `CCCNC(=O)Nc1cccc(-c2ccc(C[C@H](NS(=O)(=O)c3cc(OC)ccc3OC)C(=O)O)cc2)c1` had an inhibition constant Ki of 500 nM.

Consider `CCCNC(=O)Nc1cccc(-c2ccc(C[C@H](NS(=O)(=O)c3c(C)cc(C)cc3C)C(=O)O)cc2)c1`, for which the affinity, expressed as Ki, was 4 nM.

Molecule `CCCNC(=O)Nc1cccc(-c2ccc(C[C@H](NC(=O)OCC(C)(C)C)C(=O)O)cc2)c1` yielded an inhibition constant (Ki) of 800 nM.

As for `Cc1cc(C)c(S(=O)(=O)N[C@@H](Cc2ccc(-c3cccc(NC(=O)NC(C)C)c3)cc2)C(=O)O)c(C)c1`, affinity was put at a Ki of 14 nM.

As to `CCCNC(=O)Nc1cccc(-c2ccc(C[C@H](NS(=O)(=O)c3ccccc3S(C)(=O)=O)C(=O)O)cc2)c1`, the Ki is greater than 10000 nM.

Turning to `Cc1cc(C)c(S(=O)(=O)N[C@@H](Cc2ccc(-c3cccc(NC(=O)NCC(C)C)c3)cc2)C(=O)O)c(C)c1`, the affinity, expressed as Ki, was 10 nM.

For the molecule `CCCNC(=O)Nc1cccc(-c2cccc(C[C@H](NS(=O)(=O)c3c(C)cc(C)cc3C)C(=O)O)c2)c1`, the Ki is greater than 10000 nM.

For the molecule `Cc1cc(C)c(S(=O)(=O)N[C@@H](Cc2ccc(-c3cccc(NC(N)=O)c3)cc2)C(=O)O)c(C)c1`, affinity was put at a Ki of 80 nM.

Take `Cc1cc(C)c(S(=O)(=O)N[C@@H](Cc2ccc(-c3cccc(NC(=O)NCC(F)(F)F)c3)cc2)C(=O)O)c(C)c1`: the affinity, expressed as Ki, was 20 nM. This Ki lies about 4-fold lower than the previous one.

Consider `CCCNC(=O)Nc1cccc(-c2ccc(C[C@H](NC(=O)c3ccc(OC)cc3)C(=O)O)cc2)c1`, for which the inhibitory constant (Ki) is greater than 10000 nM.

With `CCCNC(=O)Nc1cccc(-c2ccc(C[C@H](NC(N)=O)C(=O)O)cc2)c1`, affinity was put at a Ki of 560 nM.

On to `Cc1cc(C)c(S(=O)(=O)N[C@@H](Cc2ccc(-c3cccc(NC(=O)NCc4ccc(C(F)(F)F)cc4)c3)cc2)C(=O)O)c(C)c1`, for which the affinity corresponds to a Ki of 1000 nM.

As for `Cc1cc(C)c(S(=O)(=O)N[C@@H](Cc2ccc(-c3cccc(NC(=O)NCc4ccccn4)c3)cc2)C(=O)O)c(C)c1`, the Ki is greater than 10000 nM.

Take `Cc1cc(C)c(S(=O)(=O)N[C@@H](Cc2ccc(-c3cccc(NC(=O)NCc4ccccc4)c3)cc2)C(=O)O)c(C)c1`: affinity was put at a Ki of 60 nM.

Molecule `Cc1cc(C)c(S(=O)(=O)N[C@@H](Cc2ccc(-c3cccc(NC(=O)Nc4nc5ccccc5[nH]4)c3)cc2)C(=O)O)c(C)c1` came in with a Ki greater than 10000 nM.

As to `CCCNC(=O)Nc1cccc(-c2ccc(C[C@H](NC(=O)Oc3ccc(OC)cc3)C(=O)O)cc2)c1`, the affinity corresponds to a Ki of 300 nM.

Turning to `CNC(=O)Nc1cccc(-c2ccc(C[C@H](NS(=O)(=O)c3c(C)cc(C)cc3C)C(=O)O)cc2)c1`, the affinity, expressed as Ki, was 160 nM.

With `CCCNC(=O)Nc1cccc(-c2ccc(C[C@H](NS(=O)(=O)c3ccc(OC)c(OC)c3)C(=O)O)cc2)c1`, the affinity, expressed as Ki, was 750 nM. Compared with the last molecule, the Ki is about 4.7-fold higher.

For the molecule `Cc1cc(C)c(S(=O)(=O)N[C@@H](Cc2ccc(-c3ccc(C)c(NC(=O)NC4CC4)c3)cc2)C(=O)O)c(C)c1`, affinity was put at a Ki of 10 nM.

`CCCNC(=O)Nc1cccc(-c2ccc(C[C@H](NS(=O)(=O)c3ccccc3C)C(=O)O)cc2)c1`: affinity was put at a Ki of 70 nM.

`CCCNC(=O)Nc1cccc(-c2ccc(C[C@H](NS(=O)(=O)c3cc(Cl)ccc3OC)C(=O)O)cc2)c1` came in with a Ki of 1700 nM. This Ki is about 24-fold higher than that of the molecule before.

Consider `CCCNC(=O)Nc1cccc(-c2ccc(C[C@H](NS(=O)(=O)c3ccccc3C(F)(F)F)C(=O)O)cc2)c1`, for which the Ki was greater than 10000 nM.

The molecule `CCCNC(=O)Nc1cccc(-c2ccc(C[C@H](NC(=O)OCc3ccccc3)C(=O)O)cc2)c1` showed an inhibition constant Ki of 800 nM.
